Common to all, as to assay: NCI tumour cell line growth inhibition, 48 h
Assay [1] relates to SN12C renal.
The test system of assay [2] is MCF7 breast.
The subject of assay [3] is RXF 393 renal.
In assay [4] the test system is CAKI-1 renal.
Assay [5] has as its system ACHN renal.
Assay [6] has as its system T-47D breast.
The subject of assay [7] is SF-268 CNS.
The test system of assay [8] is HCC-2998 colon.
The subject of assay [9] is NCI-H226 lung.
Assay [10] relates to SNB-75 CNS.

Values joined by “and” are separate entries in the source; they are usually repeats but may differ in a detail not shown here. Equal entries are not always repeated.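 Compound exposure: 48 hours, 5 concentrations, 96-well plates. Here, GI50 denotes the concentration required for 50% inhibition of growth. Definition used: TGI = concentration required for complete inhibition of growth.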 A value given as a limit tells only on which side of the number the result lay.

On to `COc1cc2c(cc1OC)-c1ccc3cc4c(cc3c1N(CCN(C)C)C2)OCO4`, for which the GI50 in [1] was 0.35 µM; in [2], 0.122 µM; in assay [3] it was 0.848 µM; in assay [4] it was 0.596 µM; in assay [5], 0.588 µM; in assay [6] it was 0.21 µM. Besides, the GI50 in assay [7] was 0.214 µM; in assay [8], 1.29 µM; in [9], 0.772 µM; in assay [10], 0.35 µM. In addition, the TGI is 4.4 µM in assay [1]; 5.98 µM in assay [2]; 2.89 µM in assay [3]; 11.4 µM in [4]; 3.1 µM in assay [5]; 3.48 µM in assay [6]. In addition, the TGI is 2.41 µM in assay [7], 2.87 µM in assay [8], 2.52 µM in [9] and 6 µM in [10].
For `OC(C1CO1)C(O)C1CO1` (stereo unspecified), the GI50 in assay [1] is 13.9 µM; in [2] it was 3.89 µM; in [3], 71.4 µM; in assay [4] it was 15 µM and 5.46 µM; in assay [7], 27.4 µM and 27.5 µM; in [8], 60.5 µM. The GI50 in assay [9] was 47.7 µM and 122 µM; in [10], 32.2 µM. For the same compound, the TGI in assay [1] was 126 µM and 249 µM; in [2] it was 140 µM and 78.2 µM; in [3], 139 µM and 231 µM; in [4] it was 91.5 µM and 158 µM; in [5], 52.2 µM and 156 µM; in assay [6], 150 µM and 425 µM. Moreover, the TGI in assay [7] was 114 µM and 513 µM; in assay [8], 87.9 µM and 138 µM; in assay [9], 136 µM and 412 µM; in assay [10], 116 µM and 166 µM.
In the case of `CN[C@@H]1C[C@H]2O[C@@](C)([C@@H]1OC)n1c3ccccc3c3c4c(c5c6ccccc6n2c5c31)C(=O)N[C@H]4O`, the TGI was 1.7 µM in [1]; 1.51 µM in assay [2]; 0.0534 µM in assay [3]; 0.0305 µM in assay [4]; > 10 µM in assay [5]; 0.163 µM in assay [6]. The TGI in assay [7] is 2.31 µM; in [8] it was 0.974 µM; in assay [9] it was > 4.01 µM; in assay [10] it was 0.0412 µM. Also, the GI50 in assay [2] is 0.0283 µM; in assay [4], 0.00463 µM; in assay [5], 0.036 µM; in assay [6], 0.00739 µM; in [7] it was 0.024 µM; in assay [8] it was 0.0722 µM. The GI50 in assay [9] was 0.0269 µM; in [10], 0.00564 µM.
On to `N#Cc1ccc(C2C3=C(CCCC3=O)OC3=C2C(=O)c2ccccc2C3=O)cc1` (stereo unspecified), for which the GI50 in assay [1] is 1.16 µM; in assay [2] it was 0.664 µM; in [3], 1.86 µM; in assay [4], 1.88 µM; in [5], 1.55 µM; in [6], 0.453 µM. The GI50 in assay [7] was 1.97 µM; in assay [8] it was 3 µM; in [9], 2.02 µM; in assay [10], 1.35 µM. The TGI came out at 3.16 µM in assay [1]; 2.65 µM in [2]; 3.59 µM in [3]; 3.93 µM in assay [4]; 2.89 µM in [5]; 2.24 µM in assay [6]. In addition, the TGI in assay [7] amounted to 5.04 µM; in assay [8], 8.38 µM; in assay [9], 4.62 µM; in [10], 2.65 µM.
On to `O=C(O)c1ccc2c3c(ncnc13)-c1ccccc1C2=O`, for which the GI50 in [1] is 4.26 µM; in assay [2], 4.14 µM; in assay [3], > 47.2 µM; in assay [4] it was > 81.1 µM; in assay [5] it was 25.7 µM; in [6], > 100 µM. For the same compound, the GI50 in assay [7] was 37.1 µM; in [8] it was 8.52 µM; in assay [9] it was 4.08 µM; in assay [10], 3.21 µM. Besides, the TGI in assay [1] is > 87.2 µM; in [2], > 100 µM; in assay [3] it was > 100 µM; in assay [4] it was > 100 µM; in assay [5], > 100 µM; in [6], > 100 µM. The TGI in assay [7] is > 100 µM; in assay [8], > 100 µM; in assay [9], > 100 µM; in assay [10], > 21 µM.
With `CC1(C)N=C(N)N=C(N)N1c1ccc(CCc2ccc(Cl)cc2S(=O)(=O)F)c(Cl)c1`, the GI50 in [1] was 7.98 µM; in [2], 3.64 µM; in assay [3] it was 23 µM; in assay [4] it was > 100 µM; in [5], 44.6 µM; in assay [6], 17 µM. Further, the GI50 was 4.21 µM in assay [7], 11.8 µM in assay [8], 17.9 µM in assay [9] and 8.44 µM in assay [10]. Moreover, the TGI in assay [1] was > 100 µM; in assay [2] it was 18.9 µM; in assay [3], > 100 µM; in [4] it was > 100 µM; in assay [5], > 100 µM; in assay [6], 45.2 µM. In addition, the TGI in assay [7] is 53.5 µM; in assay [8] it was 45.9 µM; in [9] it was 44.3 µM; in assay [10], 27.3 µM.
On to `COc1ccc2c3c(c4ccccc4cc13)C(=O)N(CCN(C)CCN)C2=O`, for which the GI50 in [1] was 0.0562 µM; in assay [2], 0.0133 µM; in assay [3] it was 0.259 µM; in [4] it was 0.0541 µM; in [5], 0.0187 µM; in [6], 0.0877 µM. The GI50 in assay [7] was 0.106 µM; in [8] it was 0.182 µM; in assay [9], 0.145 µM; in assay [10] it was 0.166 µM. The TGI in assay [1] was found to be 0.911 µM; in assay [2], 1.1 µM; in assay [3], 1.29 µM; in assay [4] it was 2.82 µM; in assay [5], 0.17 µM; in assay [6], 12.6 µM. Moreover, the TGI came to 1.49 µM in assay [7], 1.65 µM in assay [8], 0.383 µM in assay [9] and 1.37 µM in assay [10].
For `c1ccc(Nn2c(CCCCCCCCc3nnc(COc4ccccc4)n3Nc3ccccc3)nnc2COc2ccccc2)cc1`, the GI50 in assay [1] was 35.5 µM and 66.6 µM; in assay [2], 18.3 µM; in assay [3] it was 157 µM; in [4], 5.11 µM and 2.73 µM; in assay [5] it was 2.89 µM and 5.83 µM; in assay [6], 12.3 µM and 7.31 µM. The GI50 in assay [7] is 23.5 µM and 70.9 µM; in assay [8], 16.2 µM and 15.7 µM; in assay [9] it was 15.6 µM and 70.9 µM; in [10] it was 48.8 µM and 49.2 µM. In addition, the TGI is > 300 µM in [1]; > 300 µM in assay [2]; 98 µM and > 300 µM in assay [3]; 59.1 µM and 34.8 µM in [4]; > 300 µM in [5]; > 300 µM in assay [6]. The TGI was > 300 µM in assay [7]; > 72.6 µM and 186 µM in assay [8]; > 300 µM in [9]; > 300 µM in [10].
For `CN1CCC(C(=O)Nc2n[nH]c3nc(-c4ccc(O)cc4)c(Br)cc23)CC1`, the GI50 is 1.76 µM and 4.18 µM in assay [1]; 0.557 µM and 0.724 µM in assay [2]; 0.442 µM and 0.485 µM in assay [3]; 8.62 µM and 6.77 µM in assay [4]; 5.37 µM and 6.3 µM in [5]; 1.12 µM and 1.72 µM in [6]. In addition, the GI50 in assay [7] was 1.14 µM and 0.863 µM; in assay [8] it was 1.08 µM and 1.32 µM; in assay [9], 0.674 µM and 1.06 µM; in [10] it was 0.207 µM and 0.537 µM. The TGI is > 25 µM in [1]; > 22 µM in assay [2]; 1.4 µM and 1.6 µM in assay [3]; > 25 µM in assay [4]; > 25 µM in assay [5]; > 16.9 µM in assay [6]. For the same compound, the TGI in assay [7] is 9.27 µM and 4.68 µM; in [8], 5.72 µM and 8.32 µM; in [9] it was 8.55 µM and > 15.5 µM; in assay [10] it was 8.38 µM and 7.52 µM.
For `Nc1nc2ccc3[nH]ncc3c2c2c1CCCC2`, the GI50 is 1.91 µM in assay [1]; 0.403 µM in [2]; 0.399 µM in assay [3]; 0.609 µM in [4]; 1.56 µM in assay [5]; 2.55 µM in [6]. Also, the GI50 in assay [7] is 1.88 µM; in [8], 1.61 µM; in [9] it was 1.48 µM; in assay [10], 1.36 µM. Also, the TGI in assay [1] was 8.93 µM; in assay [2], 7.25 µM; in [3] it was 1.77 µM; in assay [4] it was 8.24 µM; in assay [5] it was 10.5 µM; in assay [6] it was 11.7 µM. Further, the TGI was 6.18 µM in [7], 3.62 µM in [8], 4.59 µM in assay [9] and 2.71 µM in assay [10].
On to `COc1ccc2c(c1)c1nc3cc(C)c(C)cc3nc1n2CCN(C)C`, for which the GI50 is 0.534 µM in assay [1]; 0.333 µM in assay [2]; 1.22 µM in assay [3]; 0.632 µM in assay [4]; 0.375 µM in assay [5]; 1.2 µM in [6]. Besides, the GI50 in assay [7] is 1.42 µM; in assay [8] it was 1.07 µM; in assay [9], 1.01 µM; in assay [10], 1.29 µM. Besides, the TGI in assay [1] was determined as 1.99 µM; in assay [2], 1.42 µM; in assay [3], 2.88 µM; in assay [4] it was 2.1 µM; in [5] it was 1.48 µM; in assay [6], 4.25 µM. In addition, the TGI stood at 3.57 µM in assay [7], 2.58 µM in assay [8], 2.97 µM in assay [9] and 4.14 µM in [10].
